Source: US20240059740A1, “CYCLIC PEPTIDES AND USES THEREOF” (PRE[…] INC., priority 2020, published 2024)
Residues, ends and D or L forms follow the SMILES beside them.

Experiments:
U251 cells = experiment: MTT assay for cytotoxicity, U251; type: cell-based, human; conditions: 48 hours, % viability of control
Excerpt: The MTT (3-[4.5-dimethylthiazol-2-yl]-2,5═diphenyl tetrazolium bromide) assay is based on a process undertaken by living cells, involving the conversion of MTT into formazan crystals. This assay is used routinely to measure the in vitro cytotoxic effects of drugs on cell lines or primary patient cells (Van Meerloo et al., 2011). The MTT assay measures mitochondrial activity, so in some instances where the peptide activates mitochondrial response, the results appear to increase the number of cells present i.e. >100% cell viability.
The aim of this experiment was to identify peptide concentrations that are active on living cells and cell viability was assessed.
The glioblastoma multiforme (GBM) cell lines used were U87 and U251 cells and patient derived cells grown as oncospheres (081024 cells). Human adherent GBM cell lines U87 and U251 were cultured in RPMI medium (Life Technologies Melbourne Australia) supplemented with 5% v/v FBS, 100 U/mL penicillin and 100 μg/mL streptomycin. 081024 cells were cultrured in NeuroCult™ NS-A Proliferation medium with 0.2% (v/v) heparin, 20 ng/mL EGF and 10 ng/mL FGF.
8×10^3 U87 and 7×10^3 U251 cells per well were seeded in 96 well plates in 200 μL serum-containing RPMI medium and incubated at 37° C. with 5% CO2 for 24 hours. After one wash with serum-free medium, 100 μL serum-free medium with different concentration of peptide SEQ ID NO:1 was added to each well. After 48 hours incubation, 10 μL of 0.5 mg/mL MTT was added and incubated for 2 hours at 37° C. Formazan crystals were dissolved by 200 μL/well dimethyl sulfoxide (DMSO) and shaking for 15 minutes. The UV absorbance was read with an iMark™ microplate absorbance reader at 595 nm (Bio-Rad Laboratories). Background absorbance was subtracted and results expressed as the % viability of control (untreated cells).

MMP-9 = experiment: Gelatin zymography of conditioned media, MMP-9 production; type: cell-based, human; conditions: compared to control containing no peptide
Excerpt: To assess whether the peptide SEQ ID NO.1 impacted MMP-2, MMP-9 and uPA production Zymography was used.
Zymography is a technique for studying hydrolytic enzymes on the basis of substrate degradation. The in-gel zymography hydrolytic enzymes are separated by their molecular weights and detected by their ability to degrade a substrate. To detect the activity of MMP-2 and MMP-9 in various cell lines, conditioned media were collected in 3 independent experiments and analysed by gelatin zymography to quantify the level of gelatin digestion, which reflects MMP-2 and MMP-9 activity and production. Casein-Plasminogen zymography was conducted to determine the activity level of uPA in the conditioned medium from various cell lines. Active uPA converts plasminogen into plasmin which then digests casein, thus clear bands where digestion of casein have occurred indirectly represent uPA activity.
The effect of the peptides on matrix protease production was tested using in-gel zymography. If the substrate included in the gel is gelatin, the enzymes detected are gelatinases: MMP-2 and MMP-9 (the latter is often of low abundance). If the gel contains casein and plasminogen, the enzymes tested are urokinase plasminogen activators (uPA); uPA is a therapeutic target in GBM.
An equal amount of protein from each sample was mixed with 5 μL of Laemmli buffer (0.01% Bromophenol Blue (W/V), 5% SDS (W/V), 22% glycerol (V/V), 14% 0.5 M Tris pH 6.8 (V/V)) and loaded onto a 10% polyacrylamide gel co-polymerized with 1 mg/ml of gelatin, and electrophoresed at 120 V for 2 hours on ice. The gel was incubated in […] solution (Triton X-100 2.5% (V/V), 1 M Tris pH 7.5 5% (V/V), 0.5 M CaCl2 1% (W/V) at room temperature overnight on an orbital shaker. The gel was incubated in a second solution for 3 hours at 37° C. The gel was then stained with Coomassie blue solution (Coomassie blue 0.25%, methanol 45%, acetic acid 10%) and destained in methanol 25% (V/V), acetic acid 10% (V/V) destaining solution until clear bands against the dark background appeared around 72 kDa and 95 kDa, representing MMP-2 and MMP-9 activity, respectively. Clear bands around 50 kDa appeared against the dark background representing uPA activity. The gels were scanned, and uPA, MMP-2 and MMP-9 were quantified by densitometry using NIH Image J software.
SEQ ID NO.1 was compared to a control containing no peptide to evaluate whether the peptide can reduce the production of matrix proteinases. A reduction in the production of matrix proteinases may be anticipated to result in comparatively less degradation of the extra-cellular matrix and so this could be one pathway by which the invasion potential could be reduced. […] This could be confirmed using a MMP-9 quantification kit, and altered production by a transcriptional mechanism can be unveiled using qRT-PCR.

CC(C)C[C@@H]1NC(=O)[C@H](C)NC(=O)[C@@H](NC(=O)[C@@H]2CCCN2C(=O)[C@@H](N)CC(C)C)CSSC(C)(C)CNC(=O)CC[C@@H](C(=O)N[C@@H](CCCNC(=N)N)C(N)=O)NC(=O)[C@H](CC(=O)O)NC(=O)[C@H](CC(N)=O)NC1=O [SEQ ID NO: 1, Leu-Pro-c(SSA*-Ala-Leu-Asn-Asp-Glu)-Arg-NH2] (HELM PEPTIDE1{L.P.C.A.L.N.D.E.R.[am]}|CHEM1{[CC(C)(CN[*:2])S[*:1]]}$PEPTIDE1,CHEM1,3:R3-1:R1|PEPTIDE1,CHEM1,8:R3-1:R2$$$V2.0; N-terminus assumed)
Cell viability (U251 cells; 1 μM): 100.7% | Cell viability (U251 cells; 5 μM): 101.7% | Cell viability (U251 cells; 10 μM): 100.4% | Cell viability (U251 cells; 50 μM): 107.3% | Cell viability (U251 cells; 100 μM): 105.5% | Cell viability (U251 cells; 500 μM): 93.84% | Cell viability (U251 cells; 1 mM): 83.99% | metalloprotease production, MMP-9 (MMP-9; 081024 cells): 98.96 | metalloprotease production, MMP-9 (MMP-9; U87 cells, listed as SEQ ID NO. 1): 58.61 | metalloprotease production, MMP-9 (MMP-9; U87 cells, listed as SEQ ID NO.1): decreased production | metalloprotease production, MMP-9 (MMP-9; U251 cells, listed as SEQ ID NO. 1): 63.4 | metalloprotease production, MMP-9 (MMP-9; U251 cells, listed as SEQ ID NO.1): decreased production
